Our source for the IC50 values is patent publication US8278345B2, “Inhibitors of glutaminyl cyclase” (Probiodrug AG, priority 2006, dated 2012).

SMILES strings stand for the structures. Read-outs that look alike come from different tables or passages of the source.

The term IC50 denotes the midpoint of a concentration-inhibition curve.

The assay concerns the target hQC (Homo sapiens, UniProt Q16769). The assay is described as follows: Inhibitor assay for glutaminyl cyclase activity (fluorometric, H-Gln-βNA / H-Gln-AMC). It counts as biochemical. Summed up: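 Coupled fluorometric assay at 30 °C with pyroglutamyl aminopeptidase, in Tris/HCl pH 8.0 with EDTA, substrate H-Gln-βNA (0.2 mM; ex/em 320/410 nm) or H-Gln-AMC (ex/em 380/460 nm), initiated by QC. Screening: 4 mM inhibitor, substrate at 1 KM; Ki from progress curves fitted to competitive inhibition.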

Chain of hQC (Q16769 29-361): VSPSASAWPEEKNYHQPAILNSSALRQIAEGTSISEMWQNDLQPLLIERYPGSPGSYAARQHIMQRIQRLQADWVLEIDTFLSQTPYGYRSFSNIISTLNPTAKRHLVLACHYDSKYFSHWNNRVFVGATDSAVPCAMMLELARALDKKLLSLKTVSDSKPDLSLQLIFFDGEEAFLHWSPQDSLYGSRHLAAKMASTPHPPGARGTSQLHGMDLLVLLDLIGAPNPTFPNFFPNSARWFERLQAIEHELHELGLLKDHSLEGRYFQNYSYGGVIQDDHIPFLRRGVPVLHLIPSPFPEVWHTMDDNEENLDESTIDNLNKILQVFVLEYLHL

As to `CCC/C=C/C1C(CC)=C(O)C(=O)N1CCCn1ccnc1` (stereo not drawn) [Compound 222, 4-Ethyl-3-hydroxy-1-(3-imidazol-1-yl-propyl)-5-(pent-1-enyl)-1,5-dihydro-pyrrol-2-one], the IC50 (read-out: IC50) worked out at 3100 nM. On the same count and under the same terms, the same measure for `CCCC1C(CC)=C(O)C(=O)N1CCCn1ccnc1` (stereo not drawn) [Compound 223, 4-Ethyl-3-hydroxy-1-(3-imidazol-1-yl-propyl)-5-propyl-1,5-dihydro-pyrrol-2-one]: 2200 nM; for `CCC1=C(O)C(=O)N(CCCn2ccnc2)C1c1cc[nH]n1` (stereo not drawn) [Compound 224, 4-Ethyl-3-hydroxy-1-(3-imidazol-1-yl-propyl)-5-(1H-pyrazol-3-yl)-1,5-dihydro-pyrrol-2-one]: 1300 nM. Take `CCC1=C(O)C(=O)N(CCCn2ccnc2)C1C(O)CO` (stereo not drawn) [Compound 225, 5-(1,2-Dihydroxy-ethyl)-4-ethyl-3-hydroxy-1-(3-imidazol-1-yl-propyl)-1,5-dihydro-pyrrol-2-one]: the IC50 (read-out: IC50) is 40 nM.

For the compound `CCC1=C(O)C(=O)N(CCCn2ccnc2)C1/C=C/C(C)C` (stereo not drawn) [Compound 226, 4-Ethyl-3-hydroxy-1-(3-imidazol-1-yl-propyl)-5-(3-methyl-but-1-enyl)-1,5-dihydro-pyrrol-2-one], where the note is “read-out: IC50”, the IC50 turned out to be 3100 nM. In the case of `CCC1=C(O)C(=O)N(CCCn2ccnc2)C1c1ccc(C)o1` (stereo not drawn) [Compound 227, 4-Ethyl-3-hydroxy-1-(3-imidazol-1-yl-propyl)-5-(5-methyl-furan-2-yl)-1,5-dihydro-pyrrol-2-one], for the setting “read-out: IC50”, the IC50 came to 2200 nM. On the same count and under the same terms, the same measure for `CCC1=C(O)C(=O)N(CCCn2ccnc2)C1c1ccc2[nH]ccc2c1` (stereo not drawn) [Compound 228, 4-Ethyl-3-hydroxy-1-(3-imidazol-1-yl-propyl)-5-(1H-indol-5-yl)-1,5-dihydro-pyrrol-2-one]: 40 nM; for `CCC1=C(O)C(=O)N(CCCn2ccnc2)C1c1ccc(OC)cc1` (stereo not drawn) [Compound 229, 4-Ethyl-3-hydroxy-1-(3-imidazol-1-yl-propyl)-5-(4-methoxy-phenyl)-1,5-dihydro-pyrrol-2-one]: 40 nM. Still for that read-out and setting: in the case of `CCC1=C(O)C(=O)N(CCCn2ccnc2)C1c1ccccc1O` (stereo not drawn) [Compound 230, 4-Ethyl-3-hydroxy-5-(2-hydroxy-phenyl)-1-(3-imidazol-1-yl-propyl)-1,5-dihydro-pyrrol-2-one] it was 40 nM. The same measure, in the same setting: in the case of `CCC1=C(O)C(=O)N(CCCn2ccnc2)C1c1ccc(C)c(C)c1` (stereo not drawn) [Compound 231, 5-(3,4-Dimethyl-phenyl)-4-ethyl-3-hydroxy-1-(3-imidazol-1-yl-propyl)-1,5-dihydro-pyrrol-2-one] it was 400 nM. For `CCCCCC1C(CC)=C(O)C(=O)N1CCCn1ccnc1` (stereo not drawn) [Compound 232, 4-Ethyl-3-hydroxy-1-(3-imidazol-1-yl-propyl)-5-pentyl-1,5-dihydro-pyrrol-2-one], under “read-out: IC50”, the IC50 stood at 40 nM. On the same count and under the same terms, in the case of `CCC1=C(O)C(=O)N(CCCn2ccnc2)C1C` (stereo not drawn) [Compound 233, 4-Ethyl-3-hydroxy-1-(3-imidazol-1-yl-propyl)-5-methyl-1,5-dihydro-pyrrol-2-one] it was 2200 nM. For the compound `CCC1=C(O)C(=O)N(CCCn2ccnc2)C1c1ccc(CO)o1` (stereo not drawn) [Compound 234, 4-Ethyl-3-hydroxy-5-(5-hydroxymethyl-furan-2-yl)-1-(3-imidazol-1-yl-propyl)-1,5-dihydro-pyrrol-2-one], for the setting “read-out: IC50”, the IC50 amounted to 1300 nM. Regarding `CCC1=C(O)C(=O)N(CCCn2ccnc2)C1/C=C/c1ccccc1` (stereo not drawn) [Compound 235, 4-Ethyl-3-hydroxy-1-(3-imidazol-1-yl-propyl)-5-(styryl)-1,5-dihydro-pyrrol-2-one], the IC50 (read-out: IC50) worked out at 5800 nM. `CCC1=C(O)C(=O)N(CCCn2ccnc2)C1c1ccccc1` (stereo not drawn) [Compound 236, 4-Ethyl-3-hydroxy-1-(3-imidazol-1-yl-propyl)-5-phenyl-1,5-dihydro-pyrrol-2-one]: under “read-out: IC50”, the IC50 came out at 1300 nM. As for `CCC1=C(O)C(=O)N(CCCn2ccnc2)C1C1CCC=CO1` (stereo not drawn) [Compound 237, 5-(3,4-Dihydro-2H-pyran-2-yl)-4-ethyl-3-hydroxy-1-(3-imidazol-1-yl-propyl)-1,5-dihydro-pyrrol-2-one], the IC50 (read-out: IC50) is 400 nM. The same measure, in the same setting: the same measure for `CCC1=C(O)C(=O)N(CCCn2ccnc2)C1C1=CCCCC1` (stereo not drawn) [Compound 238, 5-Cyclohex-1-enyl-4-ethyl-3-hydroxy-1-(3-imidazol-1-yl-propyl)-1,5-dihydro-pyrrol-2-one]: 40 nM; for `CCC1=C(O)C(=O)N(CCCn2ccnc2)C1c1c[nH]c2cc(C)ccc12` (stereo not drawn) [Compound 239, 4-Ethyl-3-hydroxy-1-(3-imidazol-1-yl-propyl)-5-(6-methyl-1H-indol-3-yl)-1,5-dihydro-pyrrol-2-one]: 400 nM.

In the case of `CCC1=C(O)C(=O)N(CCCn2ccnc2)C1C(F)(F)F` (stereo not drawn) [Compound 240, 4-Ethyl-3-hydroxy-1-(3-imidazol-1-yl-propyl)-5-trifluoromethyl-1,5-dihydro-pyrrol-2-one], the IC50 (read-out: IC50) was 40 nM.

Take `CCC1=C(O)C(=O)N(CCCn2ccnc2)C1c1c[nH]c2ccccc12` (stereo not drawn) [Compound 241, 4-Ethyl-3-hydroxy-1-(3-imidazol-1-yl-propyl)-5-(1H-indol-3-yl)-1,5-dihydro-pyrrol-2-one]: the IC50 (read-out: IC50) was determined as 40 nM. With `CCC1=C(O)C(=O)N(CCCn2ccnc2)C1Cc1ccccc1` (stereo not drawn) [Compound 242, 5-Benzyl-4-ethyl-3-hydroxy-1-(3-imidazol-1-yl-propyl)-1,5-dihydro-pyrrol-2-one], the IC50 (read-out: IC50) amounted to 2200 nM. On the same count and under the same terms, the same measure for `CCC1=C(O)C(=O)N(CCCn2ccnc2)C1c1ccccn1` (stereo not drawn) [Compound 243, 4-Ethyl-3-hydroxy-1-(3-imidazol-1-yl-propyl)-5-pyridin-2-yl-1,5-dihydro-pyrrol-2-one]: 400 nM; for `CCC1=C(O)C(=O)N(CCCn2ccnc2)C1c1ccncc1` (stereo not drawn) [Compound 244, 4-Ethyl-3-hydroxy-1-(3-imidazol-1-yl-propyl)-5-pyridin-4-yl-1,5-dihydro-pyrrol-2-one]: 400 nM; for `CCC1=C(O)C(=O)N(CCCn2ccnc2)C1c1cccs1` (stereo not drawn) [Compound 245, 4-Ethyl-3-hydroxy-1-(3-imidazol-1-yl-propyl)-5-thiophen-2-yl-1,5-dihydro-pyrrol-2-one]: 40 nM.

For the compound `CCC1=C(O)C(=O)N(CCCn2ccnc2)C1C1CC1` (stereo not drawn) [Compound 246, 5-Cyclopropyl-4-ethyl-3-hydroxy-1-(3-imidazol-1-yl-propyl)-1,5-dihydro-pyrrol-2-one], the IC50 (read-out: IC50) amounted to 1300 nM. On the same count and under the same terms, in the case of `CCC1=C(O)C(=O)N(CCCn2ccnc2)C1c1ccco1` (stereo not drawn) [Compound 247, 4-Ethyl-5-furan-2-yl-3-hydroxy-1-(3-imidazol-1-yl-propyl)-1,5-dihydro-pyrrol-2-one] it was 1300 nM; in that of `CCCCC1C(CC)=C(O)C(=O)N1CCCn1ccnc1` (stereo not drawn) [Compound 248, 5-Butyl-4-ethyl-3-hydroxy-1-(3-imidazol-1-yl-propyl)-1,5-dihydro-pyrrol-2-one], 2200 nM; in that of `CCC1=C(O)C(=O)N(CCCn2ccnc2)C1c1cccc(Cl)c1` (stereo not drawn) [Compound 249, 5-(3-Chloro-phenyl)-4-ethyl-3-hydroxy-1-(3-imidazol-1-yl-propyl)-1,5-dihydro-pyrrol-2-one], 40 nM. The same measure, in the same setting: the same measure for `CCC1=C(O)C(=O)N(CCCn2ccnc2)C1c1ccccc1F` (stereo not drawn) [Compound 250, 4-Ethyl-5-(2-fluoro-phenyl)-3-hydroxy-1-(3-imidazol-1-yl-propyl)-1,5-dihydro-pyrrol-2-one]: 1300 nM; for `CCC1=C(O)C(=O)N(CCCn2ccnc2)C1c1ccc(O)cc1` (stereo not drawn) [Compound 251, 4-Ethyl-3-hydroxy-5-(4-hydroxy-phenyl)-1-(3-imidazol-1-yl-propyl)-1,5-dihydro-pyrrol-2-one]: 400 nM. For `CCC1=C(O)C(=O)N(CCCn2ccnc2)C1c1cccc(O)c1` (stereo not drawn) [Compound 252, 4-Ethyl-3-hydroxy-5-(3-hydroxy-phenyl)-1-(3-imidazol-1-yl-propyl)-1,5-dihydro-pyrrol-2-one], for the setting “read-out: IC50”, the IC50 came to 400 nM. For `CC(C)C1=C(O)C(=O)N(c2ccc3[nH]cnc3c2)C1c1cc(F)cc(F)c1F` (stereo not drawn) [Compound 253, 1-(1H-Benzoimidazol-5-yl)-3-hydroxy-4-isopropyl-5-(2,3,5-trifluoro-phenyl)-1,5-dihydro-pyrrol-2-one], under “read-out: IC50”, the IC50 is 1300 nM. Regarding `CCCC(=O)C1=C(O)C(=O)N(c2ccc3[nH]cnc3c2)C1c1nccs1` (stereo not drawn) [Compound 254, 1-(1H-Benzoimidazol-5-yl)-4-butyryl-3-hydroxy-5-thiazol-2-yl-1,5-dihydro-pyrrol-2-one], where the note is “read-out: IC50”, the IC50 worked out at 2200 nM.

In the case of `O=C(C1=C(O)C(=O)N(c2ccc3[nH]cnc3c2)C1c1c[nH]cn1)C1CCCCC1` (stereo not drawn) [Compound 255, 1-(1H-Benzoimidazol-5-yl)-4-cyclohexanecarbonyl-3-hydroxy-5-(1H-imidazol-4-yl)-1,5-dihydro-pyrrol-2-one], for the setting “read-out: IC50”, the IC50 came to 2470 nM. On to `CCCC(=O)C1=C(O)C(=O)N(c2ccc3[nH]cnc3c2)C1c1ccc(C)o1` (stereo not drawn) [Compound 256, 1-(1H-Benzoimidazol-5-yl)-4-butyryl-3-hydroxy-5-(5-methyl-furan-2-yl)-1,5-dihydro-pyrrol-2-one], for which the IC50 by setting is: (compound from preparative synthesis, purified, read-out: IC50 hQC) 203 nM; (read-out: IC50) 4 nM.

`O=C(C1=C(O)C(=O)N(c2ccc3[nH]cnc3c2)C1c1ccc(Cl)c(C(F)(F)F)c1)c1cc2ccccc2s1` (stereo not drawn) [Compound 257, 4-(Benzo[b]thiophene-2-carbonyl)-1-(1H-benzoimidazol-5-yl)-5-(4-chloro-3-trifluoromethyl-phenyl)-3-hydroxy-1,5-dihydro-pyrrol-2-one]: the IC50 (read-out: IC50) came out at 3370 nM. `CCCCCC(=O)C1=C(O)C(=O)N(c2ccc3[nH]cnc3c2)C1c1ccc(C)o1` (stereo not drawn) [Compound 258, 1-(1H-Benzoimidazol-5-yl)-4-hexanoyl-3-hydroxy-5-(5-methyl-furan-2-yl)-1,5-dihydro-pyrrol-2-one]: under “read-out: IC50”, the IC50 amounted to 2560 nM. Still for that read-out and setting: the same measure for `CC1=C(O)C(=O)N(c2ccc3nc[nH]c3c2)C1c1cccc(F)c1F` (stereo not drawn) [Compound 259, 1-(1H-Benzoimidazol-5-yl)-5-(2,3-difluoro-phenyl)-3-hydroxy-4-methyl-1,5-dihydro-pyrrol-2-one]: 1300 nM.
